{"source": "patent US5451516A", "about": "“Bifunctional protein from carrots (Daucus carota) with aspartokinase and homoserine dehydrogenase activities” (priority 1991, dated 1995)", "molecules": {"B1": {"name": "carrot (Daucus carota L. cv Danvers) aspartokinase form II (AKII, Peak II; threonine-sensitive) of the bifunctional AK-HSDH protein (Daucus carota) (protein)", "chain": "RGAMWSIHKFGGTCVGSSERIRNVAEIVVEDDSERKLVVVSAMSKVTDMMYDLIYKAQSRDDSYESALDAVMEKHKLTAFDLLDEDDLARFLTRLQHDVITLKAMLRAIYIAGHATESFSDFVVGHGELWSAQLLSFVIRKNGGDCNWMDTRDVLVVNPAGSNQVDPDYLESEKRLEKWFSSNQCQTIVATGFIASTPQNIPTTLKRDGSDFSAAIMGALLRAGQVTIWTDVNGVYSADPRKVSEAVVLKTLSYQEAWEMSYFGANVLHPRTINPVMRYDIPIVIRNIFNLSAPGTMICRESVGETEDGLKLESHVKGFATIDNLALINVEGTGMAGVPGTATAIFGAVKDVGANVIMISQASSEHSICFAVPESEVKAVAKALEARFRQALDAGRLSQVANNPNCSILATVGQKMASTPGVSATLFNALAKANINVRAIAQGCTEYNITVVLSREDCVRALKAVHSRFYLSRTTIAVGIVGPGLIGATLLDQLRDQAAILKENSKIDLRVMGITGSRTMLLSETGIDLSRWREVQKEKGQTAGLEKFVQHVRGNHFIPSTVIVDCTADSEVASHYHDWLCRGIHVITPNKKANSGPLDQYLKLRALQRRSYTHYFYEATVVAGLPIITTLQGLLETGDKILRIEGIFSGTLSYIFNNFKSTTPFSEVVSEAKAAGYTEPDPRDDLAGTDVARKVIILARGSGLKLELSDIPVQSLVPEPLRGIASAEEFLLQLPQFDSDMTRKREDAENAGEVLRYVGVVDAVNQKGVVELKRYKKEHPFAQLSGSDNINAFTTERYNKQPPIIRGPGAGAEVTAGGVFSDILRLASYLGAPS", "notes": "AK was purified by a series of column chromatography steps; The cells were harvested after 5 days; endogenous in cells; host or cells: carrot (Daucus carota L. cv Danvers) cell suspension culture, protein partly purified by gel filtration and DEAE chromatography"}}, "key": {"[1]": {"test_system": "carrot (Daucus carota L. cv Danvers) aspartokinase form I (AKI, Peak I; lysine-sensitive) of the bifunctional AK-HSDH protein", "assay": "Aspartokinase activity, hydroxamate method (first eluting DEAE peak, AKI)", "type": "biochemical", "settings": "for % Control AK activity +lys (10 mM): 10 mM lysine; for % Control AK activity +thr (10 mM): 10 mM threonine", "protocol": "Aspartokinase activity was assayed by the hydroxamate method as described in P. Bryan et al., Biochem Biophys Res Comm 41: 1211-1217 (1970). […] The reaction was terminated by the addition of a solution of 0.37 M FeCl3, 0.20 M trichloroacetic aid and 0.72 M HCl. One unit (U) of activity produced 1 umol β-aspartylphosphate hr^-1. Zero time controls were included."}, "[2]": {"target": "T1, carrot (Daucus carota L. cv Danvers) aspartokinase form II (AKII, Peak II; threonine-sensitive) of the bifunctional AK-HSDH protein (Daucus carota, UniProt P37142)", "T1 construct": "AK was purified by a series of column chromatography steps; endogenous in cells; host or cells: carrot (Daucus carota L. cv Danvers) cell suspension culture, protein partly purified by gel filtration and DEAE chromatography", "T1 sequence (P37142 88-921)": "B1 chain", "assay": "Aspartokinase activity, hydroxamate method (second eluting DEAE peak, AKII)", "type": "biochemical", "procedure": "(§1) The first eluting peak (28-32 min), AKI, was inhibited by lysine and was relatively insensitive to threonine (See Table II). The second peak (44-48 min), AKII, was inhibited by threonine and was relatively insensitive to lysine. These two peaks were kinetically different as well as having different feedback inhibition patterns. The Km(asp) for AKI was approximately 1 mM and for AKII was approximately 9 mM. Experimental conditions could affect which AK activities were observed. AK activity inhibited by lysine was not observed unless lysine was added to the homogenization buffer. If the pH of the sample was lowered to pH 6 before anion exchange, sensitivity to lysine was lost, although the total amount of AK activity remained unchanged. […] Furthermore, the lysine-sensitive activity could not be eluted from the cation-exchange medium with KC1.\nAK was purified by a series of column chromatography steps. The cells were harvested after 5 days and disrupted in a nitrogen bomb as described for HSDH (B. Matthews (1989), supra) except that the threonine concentration was reduced to 1 mM and 1 mM lysine was added to the extraction buffer. The crude extract was concentrated by 60% ammonium sulfate before the first gel filtration through Biogel A-0.5 m (4.5 cm×47 cm) equilibrated with 50 mM Tris-HCl pH 7.5, 10 mM 2-mercaptoethanol, 1 mM EDTA, 1 mM lysine, 1 mM threonine and 20% glycerol. Fractions containing AK activity were combined, concentrated by the addition of an equal volume of saturated ammonium sulfate for a second gel filtration through Sephadex G-150 (2.5 cm×39 cm) and equilibrated with the same buffer plus 0.2 M KC1. Fractions with AK activity were combined, concentrated by the addition of an equal volume of saturated ammonium sulfate and dialyzed against 16 mM Tris-HCl pH 7.5, 10 mM 2-mercaptoethanol, 1 mM lysine, 1 mM threonine and 20% glycerol. The dialyzed sample was loaded onto an Altex Spherogel TSK DEAE-5PW column (21.5 mm×15 cm). AK activity was eluted over 65 min with a gradient from 0-0.5 M KCl in 20 mM Mes pH 6, 5 mM 2-mercaptoethanol, 1 mM lysine, 1 mM threonine, and 20% glycerol. Fractions containing activity were combined, diluted four-fold and applied to an Altex Spherogel TSK DEAE-5PW column (7.5 mm×7.5 cm) equilibrated with 50 mM Tris-HCl pH 7.5 containing 5 mM 2-mercaptoethanol,1 mM lysine, 1 mM threonine and 20% glycerol fractions containing AK activity were combined and diluted four-fold and reapplied to the column equilibrated with the same buffer containing 20 mM aspartate. Fractions with AK activity were concentrated by filtration through Centricon-303 filters (Amicon) and stored at -20° C.\nAspartokinase activity was assayed by the hydroxamate method as described in P. Bryan et al., Biochem Biophys Res Comm 41: 1211-1217 (1970). […]"}, "[3]": {"substrate": "N[C@@H](CC(=O)O)C(=O)O", "assay": "Aspartokinase activity, hydroxamate method (second eluting DEAE peak, AKII)", "type": "biochemical, Daucus carota", "settings": "other: AKII, second peak (44-48 min) from DEAE pH 6, 37.0 °C", "procedure": "as §1\nAK was purified by a series of column chromatography steps. The cells were harvested after 5 days and disrupted in a nitrogen bomb as described for HSDH (B. Matthews (1989), supra) except that the threonine concentration was reduced to 1 mM and 1 mM lysine was added to the extraction buffer. The crude extract was concentrated by 60% ammonium sulfate before the first gel filtration through Biogel A-0.5 m (4.5 cm×47 cm) equilibrated with 50 mM Tris-HCl pH 7.5, 10 mM 2-mercaptoethanol, 1 mM EDTA, 1 mM lysine, 1 mM threonine and 20% glycerol. […]"}}, "note": "Like-named read-outs stand apart in the source and are kept apart here."}
{"molecule": "NCCCC[C@H](N)C(=O)O", "note": "[lys, lysine]", "values": [{"measurement": "% Control AK activity +lys (10 mM)", "setting": "[1]; prep ak32I", "value": 21, "unit": "% Control"}, {"measurement": "% Control AK activity +lys (10 mM)", "setting": "[1]; prep ak33I", "value": 39, "unit": "% Control"}, {"measurement": "remaining activity at 10000 µM", "setting": "[2]; read-out: % Control AK activity +lys (10 mM), prep ak33II, 10 mM lysine", "value": 75, "unit": "%"}, {"measurement": "remaining activity at 10000 µM", "setting": "[2]; read-out: % Control AK activity +lys (10 mM), prep ak45II, 10 mM lysine", "value": 91, "unit": "%"}]}
{"molecule": "C[C@@H](O)[C@H](N)C(=O)O", "note": "[thr, threonine]", "values": [{"measurement": "% Control AK activity +thr (10 mM)", "setting": "[1]; prep ak32I", "value": 68, "unit": "% Control"}, {"measurement": "% Control AK activity +thr (10 mM)", "setting": "[1]; prep ak33I", "value": 71, "unit": "% Control"}, {"measurement": "remaining activity at 10000 µM", "setting": "[2]; prep ak33II, 10 mM threonine, read-out: % Control AK activity +thr (10 mM)", "value": 32, "unit": "%"}, {"measurement": "remaining activity at 10000 µM", "setting": "[2]; prep ak45II, 10 mM threonine, read-out: % Control AK activity +thr (10 mM)", "value": 33, "unit": "%"}]}
{"molecule": "B1", "values": [{"measurement": "Km", "setting": "[3]", "value": 9, "unit": "mM"}]}
